Assay results reported in ChEMBL document CHEMBL1800015, “Cytotoxic steroidal alkaloids from Kibatalia laurifolia” (J Nat Prod, 2011).

What follows are molecules tested on KB (assay: Cytotoxicity against human KB cells after 72 hrs by neutral red based colorimetry assay).
Format: functional, cell-based
C[C@@H]1OC(=O)[C@]23CC[C@H]4[C@@H](CC=C5C[C@@H](N)CC[C@@]54C)[C@@H]2CC[C@H]13 showed an IC50 of 21.2 µM.
In the case of CN[C@H]1CC[C@@]2(C)C(=C[C@@H](O)[C@H]3[C@@H]4CC[C@@H]5[C@H](C)OC(=O)[C@@]54CC[C@@H]32)C1, the IC50 is reported as over 50 µM.
Work on CN[C@@H]1CC[C@@]2(C)C(=CC[C@H]3[C@@H]4CC[C@@H]5[C@H](C)OC(=O)[C@@]54CC[C@@H]32)C1 yielded an IC50 of 21 µM.
CC(=O)N[C@@H]1CC[C@@]2(C)C(=CC[C@H]3[C@@H]4CC[C@@H]5[C@H](C)OC(=O)[C@@]54CC[C@@H]32)C1 gave an IC50 of over 50 µM.
With C[C@@H]1OC(=O)[C@]23CC[C@H]4[C@@H](CC=C5C[C@H](N)CC[C@@]54C)[C@@H]2CC[C@H]13 [GITINGENSINE] the IC50 was 21 µM.
Work on C[C@@H]1OC(=O)[C@]23CC[C@H]4[C@@H](C(=O)C=C5C=CCC[C@@]54C)[C@@H]2CC[C@H]13 [KIBALAURIFENONE] yielded an IC50 of 21 µM.
CC(=O)N(C)[C@H]1C=C2C=C[C@H]3[C@@H]4CC[C@@H]5[C@H](C)OC(=O)[C@@]54CC[C@@H]3[C@@]2(C)CC1 [KIBALAURIFOLINE] showed an IC50 of 21 µM.
CN[C@H]1CC[C@@]2(C)C(=CC[C@H]3[C@@H]4CC[C@@H]5[C@H](C)OC(=O)[C@@]54CC[C@@H]32)C1 [PARAVALLARINE] showed an IC50 of 12.8 µM.
